{"source": "paper PMC10652723", "about": "(ACS Omega, 2023)", "key": {"[1]": {"target": "SARS-CoV-2 RNA polymerase (RdRp) (Severe acute respiratory syndrome coronavirus 2, UniProt P0DTD1)", "assay": "RdRp inhibition assay", "format": "biochemical", "details": "Figure 4; result in words"}, "neural stem cells": {"tested_on": "neural stem cells", "details": "result in words; cited from earlier work"}, "SARS-CoV-2": {"tested_on": "SARS-CoV-2", "format": "cell-based", "details": "for anti-SARS-CoV-2 activity (library screening): tetrazolium dye method, result in words"}, "[2]": {"tested_on": "3-chymotrypsin-like (3CL) protease of SARS-CoV-2", "details": "result in words; cited from earlier work"}, "VeroE6/TMPRSS2 cells": {"tested_on": "VeroE6/TMPRSS2 cells", "details": "at a concentration of 100 μM; result in words"}}, "note": "Entries after “also recorded” stand apart in the source; their conditions may differ.", "data": [{"smiles": "CC1=C(C/C=C(\\C)CC/C=C(\\C)Cc2cccc(C)c2)C(=O)c2ccccc2C1=O", "note": "[Compound 1]", "values": [{"measurement": "Inhibitory effect on SARS-CoV-2 RdRp activity", "setting": "[1]", "result": "inhibited RdRp in a concentration-dependent manner"}, {"measurement": "neuronal differentiation activity", "setting": "neural stem cells", "result": "higher neuronal differentiation activity than natural vitamin K homologues; also recorded: induce neural stem cells to differentiate into neurons"}, {"measurement": "Microscopic observation of cell survival", "setting": "SARS-CoV-2", "result": "survived as well as control A"}, {"measurement": "anti-SARS-CoV-2 activity (library screening)", "setting": "SARS-CoV-2", "result": "anti-SARS-CoV-2 activity was observed"}]}, {"smiles": "CC1=CC(=O)c2ccccc2C1=O", "note": "[vitamin K3, menadione]", "values": [{"measurement": "inhibition of 3CL protease of SARS-CoV-2", "setting": "[2]", "result": "inhibit"}]}, {"smiles": "CC1=C(C/C=C(\\C)CC/C=C(\\C)Cn2cnc3c(Cl)ncnc32)C(=O)c2ccccc2C1=O", "note": "[Compound 16, 2-((2E,6E)-8-(6-Chloro-9H-purin-9-yl)-3,7-dimethylocta-2,6-dien-1-yl)-3-methylnaphthalene-1,4-dione]", "values": [{"measurement": "Inhibitory effect on SARS-CoV-2 RdRp activity", "setting": "[1]", "result": "inhibited RdRp in a concentration-dependent manner"}, {"measurement": "toxicity", "setting": "VeroE6/TMPRSS2 cells", "result": "no toxicity"}]}, {"smiles": "CC1=C(C/C=C(\\C)CC/C=C(\\C)Cc2cccc3ccccc23)C(=O)c2ccccc2C1=O", "note": "[Compound 2]", "values": [{"measurement": "Inhibitory effect on SARS-CoV-2 RdRp activity", "setting": "[1]", "result": "inhibited RdRp in a concentration-dependent manner"}, {"measurement": "neuronal differentiation activity", "setting": "neural stem cells", "result": "induce neural stem cells to differentiate into neurons"}, {"measurement": "anti-SARS-CoV-2 activity (library screening)", "setting": "SARS-CoV-2", "result": "anti-SARS-CoV-2 activity was observed"}]}]}
